The values that follow come from patent publication US20030086986A1, “Ophthalmic, pharmaceutical and other healthcare preparations with naturally occurring plant compounds, extracts and derivatives” (priority 1998, published 2003).

Where two headings read alike, the source gives them in different places.

Common to all, as to format: cell-based
Data set [1] has as its system S. aureus, Ps. aeruginosa, E. coli, C. albicans, A. niger. Briefly: Preservative/disinfectant effectiveness against the panel of test organisms (USP Category 1A Preservative Effectiveness Test). Particulars: for Effective Concentration (ppm) meeting the USP Category 1A Preservative Effectiveness Test requirements: summary of formulae that meet the requirements. An excerpt:
(§1) Disinfectant and preservative tests are most often performed by challenging the preparation with a concentrated inoculum (e.g., 10^5-10^6 colony forming units (cfu)/ml) of each test organism. Over time samples are taken and plated on a growth medium to estimate the number of live organisms remaining at each time point.
(§2) In procedures for verifying the effectiveness of ophthalmic antimicrobial agents generally recognized guidelines call for the use of Candida albicans (a yeast), Fusarium solani or Aspergillus niger (both molds), Pseudomonas aeruginosa (a Gram-negative bacterium), Staphylococcus aureus (a Gram-positive bacterium), Serratia marcescens (a Gram-negative bacterium) and Escherichia coli (a bacterium common in the human gastrointestinal tract).
(§3) Various compounds/extracts were tested in the presence of either a phosphate or a borate-buffered solution. The test organisms included (S. aureus.=Staphylococcus aureus; Ps. aeruginosa=Pseudomonas aeruginosa; E. coli=Escherichia coli; C. albicans.=Candida albicans; and A. niger=Aspergillus niger) and inspected at various time intervals to determine the “log kill” of the various formulations.
A recognized standard for evaluating the effectiveness of a preservation agent in contain in the USP. For the reader's convenience the formulae, which meet the USP Category 1A Preservative Effectiveness Test requirements, are summarized in Table 10.

Data set [2] in a line: Cytotoxicity test, USP 24 <87> Biological Reactivity Tests, In Vitro, USP Elution. As to the method: Cytotoxicity studies were also performed to determine the potential of these natural compounds, extracts and derivatives for irritation and discomfort when used as disinfecting or preservative agents. The cytotoxicity test analysis was performed in accordance with USP 24 <87> Biological Reactivity Tests, In Vitro, and USP Elution. Two ml of each sample were diluted with 10 ml of 1× MEM. The biological reactivity were described and rated as 0 (no reactivity), 1 (slight reactivity), 2 (mild reactivity), 3 (moderate reactivity), 4 (severe reactivity).

For another data set, the system named is Candida albicans. In words: Log kill test of preservative/disinfectant formulae (challenge inoculum, plating over time).
Text: as §1
(§4) The method for evaluating the effectiveness of a disinfectant for contact lenses generally requires measuring the ability of the agent to reduce the numbers of viable infective organisms during a period of time consistent with the normal period of storage of contact lenses between wearing times. This reduction of numbers of organisms is typically reported in terms of the change in the common logarithm (base 10 logarithm) of the microbial population as a result of exposure to the antimicrobial or disinfecting agent. For example, if the agent has effected a reduction in the concentration of a particular organisms in a challenge solution from 10^6 colony forming units (cfu) per milliliter (ml) to 10^2 cfu/ml within six hours of exposure then the change, or “log reduction”, of the organism as a result of exposure to the agent would be 4.0 (logs). In other words, the number of viable organisms have been reduced to one ten-thousandth of the original level.
as §2, §3

For another data set, the system named is L929 cell. Briefly: Cytotoxicity assay: high water-content soft contact lenses cycled five days in test solution, then L929 cell cytotoxicity model. How it is done:
The present inventors reported earlier on the anti-cytotoxic properties of certain natural products. Experiments were under taken to confirm the anti-cytotoxic effects of Allantoin in particular. […] Besides the usual microbial tests, the material was also used in a cytotoxicity assay, which consisted of cycling high water-content soft contact lenses for five days in each test solution. Then the solution saturated lenses were tested in a L929 cell cytotoxicity model. Cytotoxicity was rated from 0 to 5 with 2 or greater indicating cytotoxicity.

Another data set concerns Aspergillus niger. In words: Log kill test of preservative/disinfectant formulae (challenge inoculum, plating over time).
Text: as §1, §4, §2, §3

The next data set deals with Serratia marcescens. In words: Log kill test of disinfectant formulae (6 hours).
Text: as §1
The method for evaluating the effectiveness of a disinfectant for contact lenses generally requires measuring the ability of the agent to reduce the numbers of viable infective organisms during a period of time consistent with the normal period of storage of contact lenses between wearing times. This reduction of numbers of organisms is typically reported in terms of the change in the common logarithm (base 10 logarithm) of the microbial population as a result of exposure to the antimicrobial or disinfecting agent. For example, if the agent has effected a reduction in the concentration of a particular organisms in a challenge solution from 10^6 colony forming units (cfu) per milliliter (ml) to 10^2 cfu/ml within six hours of exposure then the change, or “log reduction”, of the organism as a result of exposure to the agent would be 4.0 (logs). In other words, the number of viable organisms have been reduced to one ten-thousandth of the original level. […]

In a further data set the test system is Staphylococcus aureus. In words: Log kill test of preservative/disinfectant formulae (challenge inoculum, plating over time).
Text: as §1, §4, §2, §3

As to `Oc1ccc(C=Cc2cc(O)cc(O)c2)cc1` [Resveratrol], the “Overall disinfectant/preservative effectiveness against the test organisms, in words” value in data set [1] was “wide range of effectiveness”.
Regarding `O=C(/C=C/c1ccc(O)c(O)c1)O[C@@H]1C[C@](O)(C(=O)O)C[C@@H](O)[C@H]1O` [Chlorogenic Acid], in data set [1], the “Overall disinfectant/preservative effectiveness against the test organisms, in words” value was “quite effective” and the “Effective Concentration (ppm) meeting the USP Category 1A Preservative Effectiveness Test requirements” value (from here on “Effective Concentration”) is listed as 1000 ppm.
With `O.O.O=c1c(O)c(-c2ccc(O)c(O)c2)oc2cc(O)cc(O)c12` [Quercetin Dihydrate], the “Overall disinfectant/preservative effectiveness against the test organisms, in words” value is listed as “extremely broad effectiveness” in data set [1] (statement of the text, listed as Quercetin dihydrate, Dihydrate) and “very good to excellent control” in data set [1] (statement of the text, listed as Quercetin, Dihydrate).
`C/C=C1/[C@H](O[C@@H]2O[C@H](CO)[C@@H](O)[C@H](O)[C@H]2O)OC=C(C(=O)OC)[C@H]1CC(=O)OCCc1ccc(O)c(O)c1` [Oleuropein]: the “Grade (biological reactivity)” value in data set [2] (8.3 ppm), in data set [2] (33.3 ppm) and in data set [2] (166.7 ppm) was 0 each time.
For “polyhexamethyl biguanide [PHMB, reference compound]”, in the data set on Candida albicans, the “Effectiveness against Candida albicans, in words” value is reported as “only moderately effective”. Moreover, in the data set with L929 cell, the “Cytotoxicity in L929 cell model, in words” value is “significant level of cytotoxicity”. In addition, the “Overall disinfectant/preservative effectiveness against the test organisms, in words” value in data set [1] is “extremely effective against the tested bacteria”.
With `NC(=O)NC1NC(=O)NC1=O` (centres unmarked) [Allantoin], in the data set with Candida albicans, the “Effectiveness against Candida albicans, in words” value is on record as “quite effective”. Also, in the data set with Aspergillus niger, the “Effectiveness against Aspergillus niger, in words” value is given as “quite effective”. The “Cytotoxicity in L929 cell model, in words” value with L929 cell (lenses cycled five days in test solution) is reported as “mitigate the cytotoxic characteristics of PHMB”. Besides, the “Effectiveness against Serratia marcescens, in words” value in the data set with Serratia marcescens is “effective to augment the killing”.
With `COc1ccc2cc3[n+](cc2c1OC)CCc1cc2c(cc1-3)OCO2` [Berberine], the “Effectiveness against Candida albicans, in words” value in the data set on Candida albicans was “remarkably effective”. Besides, the “Effectiveness against Staphylococcus aureus, in words” value in the data set with Staphylococcus aureus is reported as “remarkably effective”. Moreover, in the data set with Aspergillus niger, the “Effectiveness against Aspergillus niger, in words” value is listed as “remarkably effective”.
As to `OCCc1ccc(O)c(O)c1` [Hydroxytyrosol, 3,4-dihydroxy-phenylethanol], the “Grade (biological reactivity)” value in data set [2] (33.3 ppm) turned out to be 0. In addition, in data set [1], the “Effective Concentration” value is recorded as 200 ppm.
Regarding `COc1cc(/C=C/C(=O)O)ccc1O` [Ferulic Acid], the “Effectiveness against Candida albicans, in words” value in the data set on Candida albicans is on record as “better activity”. For the same compound, in data set [1], the “Overall disinfectant/preservative effectiveness against the test organisms, in words” value is recorded as “quite effective” and the “Effective Concentration” value was 1000 ppm.
